Patent publication US20230257372A1 (CHONG KUN DANG PHARMACEUTICAL CORP., priority 2020, published 2023)
Like-named read-outs stand apart in the source and are kept apart here.

Columns and labels:
[1] = system: hippocampal neurons from a Sprague-Dawley (SD) rat fetus; assay: Effect of HDAC6-specific inhibitor on axonal transport of mitochondria in amyloid-beta treated neurons; assay type: cell-based; details: transport velocity of mitochondria in neuronal axon after normalization; vehicle = 100%, amyloid beta treatment group = 0%; compound treatment for three hours
Summary of the method: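 Rat E17-18 hippocampal neurons exposed to amyloid-beta fragments […]; after 24 h (day 8 in vitro) compound added for 3 h, mitochondria stained with MitoTracker Red CMXRos. Confocal imaging every 1 s for 1 min gave per-mitochondrion velocity, normalized vehicle = 100%, amyloid-beta = 0%.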

[2] = biological target: T1, human recombinant HDAC6 (Homo sapiens, UniProt Q9UBN7); assay: HDAC6 enzyme activity inhibition (HDAC Fluorimetric Drug Discovery Kit); assay type: biochemical
T1 construct: purchased Calbiochem Inc. 382180
T1 sequence (Q9UBN7 1-1215): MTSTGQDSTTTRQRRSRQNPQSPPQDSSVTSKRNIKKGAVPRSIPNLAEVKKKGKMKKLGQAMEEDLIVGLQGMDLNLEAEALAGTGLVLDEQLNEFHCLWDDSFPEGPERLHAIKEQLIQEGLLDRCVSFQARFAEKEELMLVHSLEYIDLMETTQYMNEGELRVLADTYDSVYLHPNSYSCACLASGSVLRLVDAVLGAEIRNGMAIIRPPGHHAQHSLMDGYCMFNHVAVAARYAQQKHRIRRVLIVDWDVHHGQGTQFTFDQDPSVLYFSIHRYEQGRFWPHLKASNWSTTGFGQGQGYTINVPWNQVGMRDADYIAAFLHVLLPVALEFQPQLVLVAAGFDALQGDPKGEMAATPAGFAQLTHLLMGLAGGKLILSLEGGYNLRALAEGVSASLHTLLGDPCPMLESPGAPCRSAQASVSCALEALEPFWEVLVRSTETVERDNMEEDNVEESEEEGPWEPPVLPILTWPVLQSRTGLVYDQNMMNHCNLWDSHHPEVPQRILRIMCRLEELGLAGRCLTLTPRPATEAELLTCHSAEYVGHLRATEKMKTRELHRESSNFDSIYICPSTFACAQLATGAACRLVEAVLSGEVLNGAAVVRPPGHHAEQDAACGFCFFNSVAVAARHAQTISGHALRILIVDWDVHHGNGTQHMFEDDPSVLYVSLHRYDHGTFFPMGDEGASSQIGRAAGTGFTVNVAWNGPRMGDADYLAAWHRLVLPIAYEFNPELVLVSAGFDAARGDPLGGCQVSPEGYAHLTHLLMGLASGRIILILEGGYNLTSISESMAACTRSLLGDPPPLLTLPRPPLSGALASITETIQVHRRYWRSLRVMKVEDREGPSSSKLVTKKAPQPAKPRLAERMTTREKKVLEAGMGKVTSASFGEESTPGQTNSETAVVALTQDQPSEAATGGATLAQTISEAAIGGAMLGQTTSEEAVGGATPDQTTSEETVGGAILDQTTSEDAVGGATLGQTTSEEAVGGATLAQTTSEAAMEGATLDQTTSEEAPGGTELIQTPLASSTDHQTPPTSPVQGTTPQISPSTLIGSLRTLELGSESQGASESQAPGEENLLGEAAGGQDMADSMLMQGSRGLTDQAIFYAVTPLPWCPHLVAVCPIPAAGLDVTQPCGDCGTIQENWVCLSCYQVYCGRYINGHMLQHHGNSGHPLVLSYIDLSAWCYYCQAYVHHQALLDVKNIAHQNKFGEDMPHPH
Summary of the method: (§1)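 Compounds in 5-fold dilution series were incubated with […] enzyme and 10 μM substrate at 30° C for 60 minutes. Fluor de Lys Developer II was then added for 30 minutes to stop the reaction and develop the fluorescent signal.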

[3] = biological target: T2, human recombinant HDAC1 (Homo sapiens, UniProt Q13547); assay: HDAC1 enzyme activity inhibition (HDAC Fluorimetric Drug Discovery Kit); assay type: biochemical; details: read-out: HDAC1
T2 construct: purchased Enzo Life Science, Inc. BML-SE456
Summary of the method: as §1

[4] = human recombinant HDAC6, IC50 calculated with GraphPad Prism
[5] = human recombinant HDAC1, IC50 calculated with GraphPad Prism
[6] = human recombinant HDAC6, same protocol as HDAC1
[7] = human recombinant HDAC1, Fluor de Lys substrate, 30° C. 60 minutes

T2 sequence (Q13547 whole entry): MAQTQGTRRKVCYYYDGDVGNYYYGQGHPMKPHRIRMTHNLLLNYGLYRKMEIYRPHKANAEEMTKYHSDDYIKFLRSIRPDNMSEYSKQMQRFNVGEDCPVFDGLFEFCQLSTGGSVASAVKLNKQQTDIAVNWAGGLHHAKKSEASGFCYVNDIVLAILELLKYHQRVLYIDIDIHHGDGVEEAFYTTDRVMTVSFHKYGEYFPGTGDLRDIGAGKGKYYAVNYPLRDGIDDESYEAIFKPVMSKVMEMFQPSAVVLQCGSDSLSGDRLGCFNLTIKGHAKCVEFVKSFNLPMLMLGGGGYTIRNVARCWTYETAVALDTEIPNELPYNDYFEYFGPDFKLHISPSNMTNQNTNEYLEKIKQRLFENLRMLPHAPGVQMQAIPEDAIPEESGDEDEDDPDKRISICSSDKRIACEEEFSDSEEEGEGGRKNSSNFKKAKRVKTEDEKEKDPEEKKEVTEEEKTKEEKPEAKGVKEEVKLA

Row | Compound | Velocity distribution (%) [1] | HDAC6 selectivity (fold) ([2]; HDAC1 IC50 / HDAC6 IC50) | IC50 [2, 4] [nM] | IC50 [3, 5] [nM] | HDAC6 selectivity (fold) ([2]; HDAC6 over HDAC1) | IC50 [2, 6] [nM] | IC50 [3, 7] [nM]
1 | Fc1cc(-c2nnc(C(F)F)o2)ccc1Cn1cc(-c2cccc(N3CCN(C4COC4)CC3)c2)nn1 [Compound 4375, 2-(difluoromethyl)-5-(3-fluoro-4-((4-(3-(4-(oxetan-3-yl)piperazin-1-yl)phenyl)-1H-1,2,3-triazol-1-yl)methyl)phenyl)-1,3,4-oxadiazole] | * (*, 0%˜50%) | 1428 | 35 | > 50000 |  |  | 
2 | FC(F)c1nnc(-c2ccc(Cn3nnc(-c4cccs4)n3)nc2)o1 [Compound 4232, 2-(difluoromethyl)-5-(6-((5-(thiophen-2-yl)-2H-tetrazol-2-yl)methyl)pyridin-3-yl)-1,3,4-oxadiazole] | ** (**, 50%˜100%) | 2232 | 22.4 | > 50000 |  |  | 
3 | CC(=O)N1CCN(c2cccc(-c3cn(Cc4ccc(-c5nnc(C(F)F)o5)cn4)nn3)c2)CC1 [Compound 3990, 1-(4-(3-(1-((5-(5-(difluoromethyl)-1,3,4-oxadiazol-2-yl)pyridin-2-yl)methyl)-1H-1,2,3-triazol-4-yl)phenyl)piperazin-1-yl)ethan-1-one] | ** (**, 50%˜100%) | 2631 | 19 | > 50000 |  |  | 
4 | CCN1CCc2cc(-c3cn(Cc4ccc(-c5nnc(C(F)F)o5)cn4)nn3)ccc2C1 [Compound 4052, 2-(difluoromethyl)-5-(6-((4-(2-ethyl-1,2,3,4-tetrahydroisoquinolin-6-yl)-1H-1,2,3-triazol-1-yl)methyl)pyridin-3-yl)-1,3,4-oxadiazole] | ** (**, 50%˜100%) | 1128 | 44.3 | > 50000 |  |  | 
5 | FC(F)c1nnc(-c2ccc(Cn3cc(-c4cccc5[nH]ncc45)nn3)cc2)o1 [Compound 4347, 2-(4-((4-(1H-indazol-4-yl)-1H-1,2,3-triazol-1-yl)methyl)phenyl)-5-(difluoromethyl)-1,3,4-oxadiazole] | * (*, 0%˜50%) | 6849 | 7.3 | > 50000 |  |  | 
6 | Fc1cc(-c2nnc(C(F)F)o2)cnc1Cn1cc(-c2cccc3[nH]ncc23)nn1 [Compound 19058, 2-(6-((4-(1H-indazol-4-yl)-1H-1,2,3-triazol-1-yl)methyl)-5-fluoropyridin-3-yl)-5-(difluoromethyl)-1,3,4-oxadiazole] | *** (***, >100%) |  |  |  | 2304 | 21.7 | > 50000
7 | FC(F)c1nnc(-c2ccc(Cn3cc(-c4cccc(C5CCN(C6COC6)CC5)c4)nn3)nc2)o1 [Compound 4013, 2-(difluoromethyl)-5-(6-((4-(3-(1-(oxetan-3-yl)piperidin-4-yl)phenyl)-1H-1,2,3-triazol-1-yl)methyl)pyridin-3-yl)-1,3,4-oxadiazole] | ** (**, 50%˜100%) | 2183 | 22.9 | > 50000 |  |  | 
8 | FC(F)c1nnc(-c2ccc(Cn3cc(-c4ccc5c(CN6CCOCC6)c[nH]c5c4)nn3)cc2)o1 [Compound 4134, 4-((6-(1-(4-(5-(difluoromethyl)-1,3,4-oxadiazol-2-yl)benzyl)-1H-1,2,3-triazol-4-yl)-1H-indol-3-yl)methyl)morpholine] | ** (**, 50%˜100%) | 3030 | 16.5 | > 50000 |  |  | 
9 | O=C(c1cccc(-c2cn(Cc3ccc(-c4nnc(C(F)F)o4)cn3)nn2)c1)N1CCC1 [Compound 3886, Azetidin-1-yl(3-(1-((5-(5-(difluoromethyl)-1,3,4-oxadiazol-2-yl)pyridin-2-yl)methyl)-1H-1,2,3-triazol-4-yl)phenyl)methanone] | * (*, 0%˜50%) | 1118 | 44.7 | > 50000 |  |  | 
10 | FC(F)c1nnc(-c2ccc(Cn3cc(-c4cccc(N5CCN(C6CCC6)CC5)c4)nn3)cc2)o1 [Compound 4371, 2-(4-((4-(3-(4-cyclobutylpiperazin-1-yl)phenyl)-1H-1,2,3-triazol-1-yl)methyl)phenyl)-5-(difluoromethyl)-1,3,4-oxadiazole] | ** (**, 50%˜100%) | 917 | 54.5 | > 50000 |  |  | 
11 | FC(F)c1nnc(-c2ccc(Cn3cc(-c4ccccc4)nn3)nc2)o1 [Compound 3736, 2-(difluoromethyl)-5-(6-((4-phenyl-1H-1,2,3-triazol-1-yl)methyl)pyridin-3-yl)-1,3,4-oxadiazole] | *** (***, >100%) | 2252 | 22.2 | > 50000 |  |  | 
12 | CC(C)(C)C(=O)Nc1cccc(-c2cn(Cc3ccc(-c4nnc(C(F)F)o4)cn3)nn2)c1 [Compound 3825, N-(3-(1-((5-(5-(difluoromethyl)-1,3,4-oxadiazol-2-yl)pyridin-2-yl)methyl)-1H-1,2,3-triazol-4-yl)phenyl)pivalamide] | *** (***, >100%) | 4464 | 11.2 | > 50000 |  |  | 
13 | CC(=O)Nc1cccc(-c2cn(Cc3ccc(-c4nnc(C(F)F)o4)cc3F)nn2)c1 [Compound 3775, N-(3-(1-(4-(5-(difluoromethyl)-1,3,4-oxadiazol-2-yl)-2-fluorobenzyl)-1H-1,2,3-triazol-4-yl)phenyl)acetamide] | * (*, 0%˜50%) | 1712 | 29.2 | > 50000 |  |  | 
14 | Fc1cc(-c2nnc(C(F)F)o2)ccc1Cn1cc(-c2ccc3c(c2)CCN(C2CCC2)C3)nn1 [Compound 4361, 2-(4-((4-(2-cyclobutyl-1,2,3,4-tetrahydroisoquinolin-6-yl)-1H-1,2,3-triazol-1-yl)methyl)-3-fluorophenyl)-5-(difluoromethyl)-1,3,4-oxadiazole] | ** (**, 50%˜100%) | 668 | 74.8 | > 50000 |  |  | 
15 | FC(F)c1nnc(-c2ccc(Cn3cc(-c4cccc(NC5CCOCC5)c4)nn3)nc2)o1 [Compound 3827, N-(3-(1-((5-(5-(difluoromethyl)-1,3,4-oxadiazol-2-yl)pyridin-2-yl)methyl)-1H-1,2,3-triazol-4-yl)phenyl)tetrahydro-2H-pyran-4-amine] | *** (***, >100%) | 2487 | 20.1 | > 50000 |  |  | 
16 | Fc1cc(-c2nnc(C(F)F)o2)ccc1Cn1cc(-c2cn3ccccc3n2)nn1 [Compound 17201, 2-(difluoromethyl)-5-(3-fluoro-4-((4-(imidazo[1,2-a]pyridin-2-yl)-1H-1,2,3-triazol-1-yl)methyl)phenyl)-1,3,4-oxadiazole] | * (*, 0%˜50%) |  |  |  | 639 | 78.2 | > 50000
17 | O=C(Nc1cccc(-c2cn(Cc3ccc(-c4nnc(C(F)F)o4)cc3F)nn2)c1)C(F)(F)F [Compound 3777, N-(3-(1-(4-(5-(difluoromethyl)-1,3,4-oxadiazol-2-yl)-2-fluorobenzyl)-1H-1,2,3-triazol-4-yl)phenyl)-2,2,2-trifluoroacetamide] | * (*, 0%˜50%) | 2222 | 22.5 | > 50000 |  |  | 
